Calls of active or inactive are those of the source.
Columns and labels:
[1] = molecular target: T1, High affinity choline transporter 1 (Homo sapiens, UniProt Q9GZV3); assay: human choline transporter blockers, potency – cell-based, 5-point CRC, membrane potential dye, dose response (AID 504840); type: functional
T1 sequence (Q9GZV3 whole entry): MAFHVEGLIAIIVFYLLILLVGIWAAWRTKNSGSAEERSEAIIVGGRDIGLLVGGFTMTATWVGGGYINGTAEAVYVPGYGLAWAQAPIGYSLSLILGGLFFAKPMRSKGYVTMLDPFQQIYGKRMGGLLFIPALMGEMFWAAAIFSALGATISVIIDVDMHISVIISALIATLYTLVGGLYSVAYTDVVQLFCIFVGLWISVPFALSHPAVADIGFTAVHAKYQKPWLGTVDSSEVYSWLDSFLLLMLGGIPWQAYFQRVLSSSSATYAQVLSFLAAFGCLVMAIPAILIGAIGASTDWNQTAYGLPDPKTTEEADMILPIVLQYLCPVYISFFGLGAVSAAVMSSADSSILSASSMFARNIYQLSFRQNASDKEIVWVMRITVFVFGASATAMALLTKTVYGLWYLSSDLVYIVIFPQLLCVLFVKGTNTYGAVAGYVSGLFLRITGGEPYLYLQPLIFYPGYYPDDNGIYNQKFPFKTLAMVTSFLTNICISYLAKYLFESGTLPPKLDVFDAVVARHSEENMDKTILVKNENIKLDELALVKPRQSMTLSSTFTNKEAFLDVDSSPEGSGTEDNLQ

[2] = molecular target: T2, Carboxy-terminal domain RNA polymerase II polypeptide A small phosphatase 1 (Homo sapiens, UniProt Q9GZU7); assay: CTDSP1 inhibitors, concentration-response, biochemical, absorbance readout, ultra-high-throughput screen actives (AID 540297); type: functional
T2 sequence (Q9GZU7 whole entry): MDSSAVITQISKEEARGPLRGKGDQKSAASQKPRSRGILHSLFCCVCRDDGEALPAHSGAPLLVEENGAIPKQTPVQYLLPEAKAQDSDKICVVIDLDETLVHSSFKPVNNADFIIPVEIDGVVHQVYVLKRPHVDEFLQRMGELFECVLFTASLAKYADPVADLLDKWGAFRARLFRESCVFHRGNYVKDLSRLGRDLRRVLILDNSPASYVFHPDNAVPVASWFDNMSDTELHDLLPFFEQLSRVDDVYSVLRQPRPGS

[3] = molecular target: Large T antigen (Simian virus 40, UniProt P03070); type: functional, Betapolyomavirus macacae;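 note: Confirmatory-stage PubChem screen for compounds that inhibit SV40 T antigen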
[4] = molecular target: T3, Rac GTPase-activating protein 1 (Homo sapiens, UniProt Q9H0H5); assay: blockers of MgcRacGAP-driven Rac1 GTP hydrolysis – biochemical, ADP Hunter fluorescence, primary and confirmatory, confirmation (AID 624330); type: functional
T3 sequence (Q9H0H5 whole entry): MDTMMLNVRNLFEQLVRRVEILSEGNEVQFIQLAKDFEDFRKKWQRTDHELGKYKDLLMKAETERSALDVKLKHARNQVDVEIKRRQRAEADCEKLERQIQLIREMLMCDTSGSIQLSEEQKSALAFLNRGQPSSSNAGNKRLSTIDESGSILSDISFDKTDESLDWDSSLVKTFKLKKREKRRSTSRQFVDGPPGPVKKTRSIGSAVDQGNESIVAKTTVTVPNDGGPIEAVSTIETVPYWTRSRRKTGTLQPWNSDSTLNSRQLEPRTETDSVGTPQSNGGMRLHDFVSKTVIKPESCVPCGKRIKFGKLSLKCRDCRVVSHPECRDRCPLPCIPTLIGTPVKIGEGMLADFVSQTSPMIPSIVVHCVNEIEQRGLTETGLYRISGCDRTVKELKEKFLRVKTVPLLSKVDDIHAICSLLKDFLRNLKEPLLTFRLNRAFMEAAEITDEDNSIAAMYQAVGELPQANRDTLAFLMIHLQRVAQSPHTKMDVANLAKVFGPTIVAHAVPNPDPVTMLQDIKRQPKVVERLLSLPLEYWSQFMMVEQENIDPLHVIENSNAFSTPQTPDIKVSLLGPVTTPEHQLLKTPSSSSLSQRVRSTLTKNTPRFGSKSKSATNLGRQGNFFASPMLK

[5] = growth inhibition of PfATP4-mutant resistant parasites – NITD609-resistant line, SYBR Green, dry powder, dose response (AID 1159571); type: functional, cell-based;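 note: parasites synchronized at ring stage by sorbitol before testing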
[6] = toxicity to human HepG2 hepatoma cells – cell-based, plate reader, dry powder samples, cytotoxicity control, dose response (AID 1159569); type: functional;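 note: inhibitor potency with signal falling toward the positive control level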
[7] = P. falciparum Dd2 growth inhibitors, dose response, SYBR Green, cherry-picked samples (AID 1159567); type: functional, cell-based
[8] = growth inhibition of yeast DHODH-expressing 3D7 parasites – SYBR Green, dry powder samples, dose response (AID 1159570); type: functional, cell-based;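 note: parasite growth measured after 72 hours of compound exposure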
[9] = Dd2 malaria parasite growth inhibition potency – SYBR Green, dry powder samples, dose response (AID 1159566); type: functional, cell-based;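 note: potency for growth inhibition with lower SYBR green DNA signal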
[10] = microbe, parasite or virus in culture; type: functional; details: Mycobacterium tuberculosis
[11] = molecular target: T4, Streptokinase A (Streptococcus pyogenes serotype M1, UniProt P10520); assay: viability-normalized secreted streptokinase activity reduction – plasminogen activation absorbance, OD405, dose response (AID 1914); type: functional, Streptococcus pyogenes M1 GAS;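 note: secreted streptokinase activity via plasminogen activation per viability signal from cell pellet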
T4 sequence (P10520 whole entry): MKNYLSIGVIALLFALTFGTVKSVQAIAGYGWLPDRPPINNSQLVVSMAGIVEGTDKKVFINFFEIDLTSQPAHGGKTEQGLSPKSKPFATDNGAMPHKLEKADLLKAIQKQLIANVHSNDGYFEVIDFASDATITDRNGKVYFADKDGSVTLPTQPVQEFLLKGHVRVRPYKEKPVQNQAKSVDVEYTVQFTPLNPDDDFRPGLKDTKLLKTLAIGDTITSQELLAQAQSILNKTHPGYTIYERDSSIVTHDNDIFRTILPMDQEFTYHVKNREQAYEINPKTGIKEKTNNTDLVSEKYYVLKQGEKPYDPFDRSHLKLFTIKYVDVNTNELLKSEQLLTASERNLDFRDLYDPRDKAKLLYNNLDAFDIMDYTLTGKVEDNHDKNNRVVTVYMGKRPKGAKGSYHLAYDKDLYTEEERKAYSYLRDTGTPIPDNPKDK

[12] = molecular target: Heat shock protein HSP 90-alpha (Homo sapiens, UniProt P07900); type: functional, organism-based
[13] = reduction of Shn3 3'UTR-driven luciferase in osteoblasts – cell-based, Clone20 osteoblasts, firefly luciferase, cherry-picked, dose response (AID 624132); type: functional;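 note: firefly luciferase luminescence from reporter carrying the Shn3 3'UTR in osteoblasts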
[14] = non-specific 3'UTR reporter inhibition in Clone20-Shn3RL – cell-based, Renilla luciferase, cherry-picked, counter-screen for Shn3 inhibitor project, dose response (AID 624133); type: functional
[15] = Luminescence Cell-Based Dose Retest to Confirm Inhibitors of Cancer Stem Cells. [Related pubchem assays (depositor defined):AID2717, AID2721]; type: functional; details: Homo sapiens
[16] = molecular target: Induced myeloid leukemia cell differentiation protein Mcl-1 (Homo sapiens, UniProt Q07820); type: functional
[17] = molecular target: T5, DNA repair protein RAD52 homolog (Homo sapiens, UniProt P43351); type: functional, biochemical
T5 sequence (P43351 whole entry): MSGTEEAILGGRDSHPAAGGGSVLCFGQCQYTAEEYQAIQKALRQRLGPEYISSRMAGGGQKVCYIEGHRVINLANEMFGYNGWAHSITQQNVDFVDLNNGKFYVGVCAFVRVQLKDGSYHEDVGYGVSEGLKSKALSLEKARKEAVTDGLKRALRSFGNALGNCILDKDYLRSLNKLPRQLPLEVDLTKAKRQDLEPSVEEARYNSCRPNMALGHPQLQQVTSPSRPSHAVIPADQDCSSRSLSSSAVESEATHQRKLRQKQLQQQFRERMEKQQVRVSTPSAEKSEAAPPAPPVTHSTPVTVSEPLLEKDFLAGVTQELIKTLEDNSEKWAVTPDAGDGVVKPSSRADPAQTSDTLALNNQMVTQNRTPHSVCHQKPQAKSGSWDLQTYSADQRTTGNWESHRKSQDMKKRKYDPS

[18] = Luminescence Cell-Based Dose Response HTS to Identify Inhibitors of 5'UTR Stem-Loop Driven Prion Protein mRNA Translation in H4 Neuroglioblastoma Cells. [Related pubchem assays: 1827 (Project Summary), 1813 (Primary HTS)]; type: functional
[19] = alpha-synuclein stem-loop luciferase translation blockers – H4 neuroglioma cells, luminescence, confirmation (AID 1988); type: functional, cell-based
[20] = luciferase reporter signal suppression in cells – H4 neuroglioma cells, luminescence, dose response (AID 1990); type: functional, cell-based
[21] = molecular target: T6, Zinc finger protein mex-5 (Caenorhabditis elegans, UniProt Q9XUB2); assay: potency of MEX-5 RNA-binding blockers – biochemical, C. elegans, fluorescence polarization, dose response (AID 1960)
T6 sequence (Q9XUB2 whole entry): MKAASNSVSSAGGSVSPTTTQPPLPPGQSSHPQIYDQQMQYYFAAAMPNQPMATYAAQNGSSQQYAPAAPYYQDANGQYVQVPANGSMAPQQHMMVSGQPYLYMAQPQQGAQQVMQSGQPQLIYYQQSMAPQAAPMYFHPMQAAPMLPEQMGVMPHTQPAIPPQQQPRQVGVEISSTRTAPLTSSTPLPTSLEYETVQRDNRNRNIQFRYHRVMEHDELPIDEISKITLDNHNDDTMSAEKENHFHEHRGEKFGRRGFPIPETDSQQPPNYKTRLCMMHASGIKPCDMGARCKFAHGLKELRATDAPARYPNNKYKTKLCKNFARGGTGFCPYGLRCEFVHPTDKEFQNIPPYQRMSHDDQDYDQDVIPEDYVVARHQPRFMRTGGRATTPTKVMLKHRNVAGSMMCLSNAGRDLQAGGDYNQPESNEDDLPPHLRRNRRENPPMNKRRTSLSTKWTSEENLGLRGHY

[22] = molecular target: T7, RNA-binding protein pos-1 (Caenorhabditis elegans, UniProt G5EF15); assay: disruptors of C. elegans POS-1 RNA interaction – biochemical, fluorescence polarization, dose response (AID 1964);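 note: purified POS-1 fused to maltose binding protein made in E. coli; potency of compounds blocking POS-1 binding to fluorescent RNA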
T7 sequence (G5EF15 whole entry): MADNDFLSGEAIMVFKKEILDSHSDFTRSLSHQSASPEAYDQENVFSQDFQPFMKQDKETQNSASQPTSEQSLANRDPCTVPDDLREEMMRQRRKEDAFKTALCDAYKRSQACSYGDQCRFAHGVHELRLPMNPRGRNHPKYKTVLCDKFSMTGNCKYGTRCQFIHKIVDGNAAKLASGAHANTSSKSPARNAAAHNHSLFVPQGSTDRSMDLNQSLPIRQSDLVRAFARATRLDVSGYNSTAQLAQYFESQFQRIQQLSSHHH

Sequence of Large T antigen (P03070 whole entry): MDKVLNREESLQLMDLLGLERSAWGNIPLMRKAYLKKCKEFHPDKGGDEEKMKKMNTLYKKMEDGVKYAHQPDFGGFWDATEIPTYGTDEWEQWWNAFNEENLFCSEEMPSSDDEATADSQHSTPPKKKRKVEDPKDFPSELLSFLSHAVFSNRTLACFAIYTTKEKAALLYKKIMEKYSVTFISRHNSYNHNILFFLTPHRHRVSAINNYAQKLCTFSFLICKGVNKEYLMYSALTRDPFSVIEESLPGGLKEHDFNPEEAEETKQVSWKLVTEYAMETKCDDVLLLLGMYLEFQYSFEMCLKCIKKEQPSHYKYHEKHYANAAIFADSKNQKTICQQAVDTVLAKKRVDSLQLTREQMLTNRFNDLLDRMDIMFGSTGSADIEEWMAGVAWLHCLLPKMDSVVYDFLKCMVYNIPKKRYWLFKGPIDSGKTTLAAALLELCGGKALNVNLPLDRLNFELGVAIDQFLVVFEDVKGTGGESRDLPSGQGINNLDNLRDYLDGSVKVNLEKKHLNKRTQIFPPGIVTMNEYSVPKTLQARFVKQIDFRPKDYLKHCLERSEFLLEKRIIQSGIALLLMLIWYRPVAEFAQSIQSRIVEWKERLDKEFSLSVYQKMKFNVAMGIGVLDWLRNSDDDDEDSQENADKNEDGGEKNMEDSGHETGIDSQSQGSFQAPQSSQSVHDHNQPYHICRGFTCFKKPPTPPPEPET
Sequence of Induced myeloid leukemia cell differentiation protein Mcl-1 (Q07820 whole entry): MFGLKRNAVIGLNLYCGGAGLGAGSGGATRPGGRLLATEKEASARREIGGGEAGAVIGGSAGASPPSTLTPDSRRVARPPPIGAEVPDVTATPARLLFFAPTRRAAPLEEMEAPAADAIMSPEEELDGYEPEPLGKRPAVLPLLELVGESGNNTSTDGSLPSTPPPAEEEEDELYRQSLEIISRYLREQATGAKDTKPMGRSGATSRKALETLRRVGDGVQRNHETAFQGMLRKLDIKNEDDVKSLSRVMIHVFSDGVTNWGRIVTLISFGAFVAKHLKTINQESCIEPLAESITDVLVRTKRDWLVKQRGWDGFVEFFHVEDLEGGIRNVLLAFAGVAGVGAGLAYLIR

## S=C(NCC1CCCO1)Nc1cc(Cl)c(Cl)cc1Cl (configuration not stated)
[1]
  IC50: 14.5 µM (active)

## Cc1ccc(C(=O)O)cc1NC(=S)NC(=O)c1ccc(COc2ccccc2)cc1
[1]
  IC50: 15.5 µM (active)
[2]
  IC50: 6.25 µM (active)

## CSc1nc(Cl)cc(Nc2ccc(O)cc2)n1
[3]
  IC50: 17.8 µM (active)

## O=C(CCn1cnc2ccccc21)N/N=C/c1ccc(O)cc1
[4]
  IC50: 51.6 µM (active)
[3]
  IC50: 14.2 µM (active)

## C=C(C)CSc1nnc(CCCCCNC(=O)OC(C)(C)C)o1
[1]
  IC50: 6.92 µM (active)

## COc1ccc2c3c(n(C)c2c1)[C@@H](CO)N(C(=O)Nc1ccc(F)cc1)CC31CCN(Cc2cccnc2)CC1
[5]
  AC50: 1.12 µM (active)
[6]
  AC50: 31.7 µM (active)
[7]
  AC50: 819 nM (active)
[8]
  AC50: 1.37 µM (active)
[9]
  AC50: 727 nM (active)

## CCOC(=O)C(C)Sc1nc(-c2cccs2)ccc1C#N (configuration not stated)
[10]
  CC50: 38.9 µM (active)

## CCOC(=O)c1[n-]c2ccccc2c1[N+]#N
[11]
  EC50: > 150 µM (not active)
[12]
  AC50: 444 nM (active)

## COc1cc(C#Cc2c(-c3cncn3C)n(C)c3ccc(-c4ccc(OC)nc4)cc23)cc(OC)c1
[13]
  AC50: 20.5 µM (active)
[12]
  AC50: 5500 nM (active)
[14]
  AC50: 21.2 µM (active)
[15]
  AC50: 4.95 µM (active)

## CN(C)c1ccc(NC(=O)Cn2ncn3c(cc4ccccc43)c2=O)cc1
[3]
  IC50: 29.6 µM (active)
[16]
  IC50: 3.14 µM (active)

## CN1CCN(CCCCOc2ccccc2C=O)CC1
[17]
  AC50: 15.8 µM (active)

## CN(C)CC/C=C1\c2ccc(F)cc2Sc2cc(F)c(Cl)cc21
[18]
  EC50: 45.6 µM (active)
[19]
  EC50: 12.9 µM (active)
[20]
  EC50: > 120 µM (not active)
[17]
  AC50: 9.75 µM (active)

## CCOC(=O)c1sc(NC(=O)CCN2C(=O)c3cccc([N+](=O)[O-])c3C2=O)c(C(=O)OCC)c1C
[1]
  IC50: 5.98 µM (active)

## c1ccc(CN2CCN(c3nc(NCc4ccco4)c4ccccc4n3)CC2)cc1
[10]
  CC50: 24.4 µM (active)
[15]
  AC50: 3.34 µM (active)

## c1ccc(CCNc2c3c(nc4ncnn24)CCC3)cc1
[1]
  IC50: 10.1 µM (active)

## Cc1ccc(-c2csc(NC(=O)c3cccc(C)c3)c2C(=O)O)cc1
[1]
  IC50: 11.8 µM (active)

## O=C1NC(=O)N(c2ccccc2)C(=O)/C1=C\c1ccc2c3c(cccc13)CC2
[21]
  EC50: > 300 µM (not active)
[22]
  EC50: > 300 µM (not active)
[3]
  IC50: 68.4 µM (active)
[16]
  IC50: 5.04 µM (active)

## COc1cc(C(=O)NC2CC(C)(C)CC(C)(C)C2)ccc1OC1CCN(C(C)=O)CC1
[1]
  IC50: 13.8 µM (active)

## O=C(CC(n1cncn1)C(Cl)(Cl)Cl)c1ccc([N+](=O)[O-])cc1 (configuration not stated)
[12]
  AC50: 4150 nM (active)

## COc1cc(-c2cnc3c(NC=O)cc(-c4ccc(N5CCN(C)CC5)cc4)cn23)cc(OC)c1OC
[17]
  AC50: 4.54 µM (active)

## CC1(C)CC(=O)C(/C=N/c2ccc(O)cc2)=C(O)C1
[4]
  IC50: 17 µM (active)
[3]
  IC50: 5.53 µM (active)

## COc1ccc(C2=CC3=C(Br)C(=O)C(C)(OC(=O)c4ccc(Cl)nc4)C(=O)C3=CO2)cc1 (configuration not stated)
[21]
  EC50: > 300 µM (not active)
[22]
  EC50: > 300 µM (not active)
[3]
  IC50: 56.7 µM (active)

## Nc1ccc2c(c1)-c1ccccc1S(=O)(=O)N2
[21]
  EC50: 12.2 µM (active)
[22]
  EC50: > 300 µM (not active)
[3]
  IC50: 3.99 µM (active)

## O=C1C=CC(=O)N1c1ccc2ccccc2c1
[12]
  AC50: 832 nM (active)
